Laboratory results published in patent US11306331B2, “Processes for the production of hydroxycinnamic acids using polypeptides having tyrosine ammonia lyase activity” (CysBio ApS, priority 2014, dated 2022).

Legend:
[1] = target: T1, Rhodobacter sphaeroides RsTAL (Protein GI 126464011), His-tagged (N-terminal tag SEQ ID NO: 11) (Cereibacter sphaeroides, UniProt Q3IWB0); assay: In vitro kinetics of purified His-tagged RsTAL (tyrosine/phenylalanine ammonia lyase activity, absorbance at 315/295 nm)
T1 sequence (Q3IWB0 1-523): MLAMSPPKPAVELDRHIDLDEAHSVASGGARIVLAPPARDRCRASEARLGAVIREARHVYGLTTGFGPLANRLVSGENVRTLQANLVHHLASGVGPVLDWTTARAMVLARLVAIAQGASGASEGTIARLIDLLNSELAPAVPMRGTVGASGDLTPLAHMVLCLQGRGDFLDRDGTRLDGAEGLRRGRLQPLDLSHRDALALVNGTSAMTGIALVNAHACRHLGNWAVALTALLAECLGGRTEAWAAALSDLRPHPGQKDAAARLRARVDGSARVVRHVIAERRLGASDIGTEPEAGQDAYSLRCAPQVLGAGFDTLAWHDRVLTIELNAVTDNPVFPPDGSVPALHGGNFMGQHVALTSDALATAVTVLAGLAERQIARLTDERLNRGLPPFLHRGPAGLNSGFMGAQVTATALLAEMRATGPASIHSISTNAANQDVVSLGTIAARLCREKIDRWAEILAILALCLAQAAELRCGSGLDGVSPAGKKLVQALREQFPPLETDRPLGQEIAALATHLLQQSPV
Protocol: Strains expressing His-tagged versions of the enzymes were grown in LB media overnight at 37° C. and diluted into fresh LB media with 1 mM IPTG and growth was propagated overnight (approximately 18 h) at 30° C. Cells were harvested by centrifugation at 8000 rpm for 8 minutes, and disrupted by shearing into a buffer (50 mM Tris-HCl, 10 mM imidazole, 500 mM NaCl, 10% glycerol, pH 7.5). The homogenate was clarified by centrifugation at 10000 g for 10 min at 4° C., and the supernatant was loaded onto Ni2+-NTA resin column on an Äkta Pure system connected to a F9-C fraction collector (GE). Finally the fractions containing the purified polypeptide was dialyzed overnight against a buffer containing 50 mM Tris-HCl pH 7.5, 150 mM NaCl and 10% glycerol, flash-frozen in liquid nitrogen and stored at −80° C.
Enzymatic assays were performed in 200 μL volumes in wells in a UV transparent 96-well plate, by following the increase in absorbance at 315 nm (pHCA) or 295 nm (CA). The reaction mixtures contained 2 μg of purified protein and were initiated by adding 1 mM tyrosine or 6 mM after equilibration to 30° C. The enzymatic activity was calculated as U/g, where U is defined as μmol substrate converted per minute.

[2] = target: T2, Herpetosiphon aurantiacus HaXAL1 tyrosine ammonia lyase (Protein GI 159898407), SEQ ID NO: 2, His-tagged (N-terminal tag SEQ ID NO: 11) (Herpetosiphon aurantiacus, UniProt A9AUJ9); assay: In vitro kinetics of purified His-tagged HaXAL1 (tyrosine/phenylalanine ammonia lyase activity, absorbance at 315/295 nm); type: biochemical
T2 sequence (A9AUJ9 1-552): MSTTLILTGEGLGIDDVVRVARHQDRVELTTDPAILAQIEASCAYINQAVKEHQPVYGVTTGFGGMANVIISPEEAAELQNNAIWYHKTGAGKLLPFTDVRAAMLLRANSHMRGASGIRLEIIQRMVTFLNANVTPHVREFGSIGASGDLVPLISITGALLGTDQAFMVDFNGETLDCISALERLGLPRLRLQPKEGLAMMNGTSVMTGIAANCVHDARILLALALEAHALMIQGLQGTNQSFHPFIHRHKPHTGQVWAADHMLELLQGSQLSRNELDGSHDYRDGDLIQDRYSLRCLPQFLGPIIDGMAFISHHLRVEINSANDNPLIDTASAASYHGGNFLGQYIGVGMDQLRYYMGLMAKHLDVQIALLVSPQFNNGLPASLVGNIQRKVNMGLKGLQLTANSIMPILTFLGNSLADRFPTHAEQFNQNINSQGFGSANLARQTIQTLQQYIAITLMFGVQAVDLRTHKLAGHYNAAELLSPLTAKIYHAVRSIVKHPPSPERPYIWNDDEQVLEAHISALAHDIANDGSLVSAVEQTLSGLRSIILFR
Protocol: The tyrosine ammonia lyase activity may for instance be determined in accordance to the following method: Enzymatic assays are performed in 200 μL volumes in wells in a UV transparent 96-well plate, by following the increase in absorbance at 315 nm (pHCA) using spectrophotometry or HPLC with UV detection. The reaction mixtures contain 2 μg of purified protein and are initiated by adding 1 mM tyrosine or 6 mM after equilibration to 30° C. The enzymatic activity is calculated as U/g, where U is defined as μmol substrate converted per minute. Negative controls contain no purified protein. Kinetic constants Km and vmax are determined from assays containing 1.56 μM to 200 μM tyrosine. See also Kyndt et al. (2002).
Four of the enzymes were further purified by His-tag purification as follows. A DNA linker (5′ phosphorylated oligonucleotides CBJP559 and CBJP560, Table 5) was inserted in place of the sequence between the NdeI and BgIII site in plasmid pCDFDuet-1. This would result in the addition of the amino acids MAHHHHHHENLYFQ (SEQ ID NO: 11) to the N-terminal end of the polypeptides. […]
Enzymatic assays were performed in 200 μL volumes in wells in a UV transparent 96-well plate, by following the increase in absorbance at 315 nm (pHCA) or 295 nm (CA). […] The enzymatic activity was calculated as U/g, where U is defined as μmol substrate converted per minute.

[3] = 30° C, 1.56 μM to 200 μM tyrosine or 193 μM to 25 mM phenylalanine
[4] = ratio of Kcat/Km for Tyr over Phe

N[C@@H](Cc1ccc(O)cc1)C(=O)O [Tyr, tyrosine]
Kcat [1, 3]: 0.173 s⁻¹ | TAL/PAL [1, 4]: 125 | Kcat [2, 3]: 0.0517 s⁻¹ | TAL/PAL [2, 4]: 540
